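Five concentrations, 48 hours, 96-well plates. GI50 = concentration required for 50% inhibition of growth. At the TGI there is no net growth.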
What was measured:
Assay in all cases: NCI tumour cell line growth inhibition, 48 h
[1] = system: HCC-2998 colon
[2] = system: SN12C renal
[3] = system: SNB-19 CNS
[4] = system: MOLT-4 leukemia
[5] = system: T-47D breast
[6] = system: OVCAR-4 ovarian
[7] = system: OVCAR-8 ovarian
[8] = system: TK-10 renal
[9] = system: SW-620 colon
[10] = system: HOP-62 NSCLC

Structure (SMILES)	GI50 [1] [µM]	TGI [1] [µM]	GI50 [2] [µM]	TGI [2] [µM]	GI50 [3] [µM]	TGI [3] [µM]	GI50 [4] [µM]	TGI [4] [µM]	GI50 [5] [µM]	TGI [5] [µM]	GI50 [6] [µM]	TGI [6] [µM]	GI50 [7] [µM]	TGI [7] [µM]	TGI [8] [µM]	GI50 [9] [µM]	TGI [9] [µM]	GI50 [10] [µM]	TGI [10] [µM]	GI50 [8] [µM]
CCN(Cc1c(F)cccc1OC)c1ccc(CO)c(Cl)c1	7.33	22.3	12.8	26	24.2	> 100	17.4	52.3	0.0467	0.283	0.216	13	12	50.2	0.0536	0.714	> 77	2.69	25.5	–
O=[N+]([O-])c1ccccc1N=Nc1c(O)[nH]c2c(Cl)cc(Cl)cc12	–	> 100	–	> 100	–	> 100	–	> 87.8	–	> 100	–	> 100	–	> 100	96.2	–	> 100	–	> 23.1	–
O=c1cccc(C#CC#C[C@@H]2O[C@H]2CO)o1	0.217	0.55	0.465	0.915	3.36	12	0.33	> 100	1.33	3.32	–	–	1.03	3.12	3.38	0.746	3.77	1.55	3.03	1.47
NNc1ncnc2nc[nH]c12	7.48	> 58.1	7.33	> 100	28.7	> 100	5.31	> 60.1	3.67	> 100	3.79	> 100	5.09	> 100	> 100	3.91	> 100	2.25	10.5	2.94
C=CC12CCN(CC1)C(C(O)c1ccnc3ccc(OC)cc13)C2 (configuration not stated)	> 100	> 100	> 100	> 100	> 100	> 100	> 100	> 100	> 100	> 100	> 100	> 100	> 100	> 100	> 100	> 100	> 100	> 100	> 100	> 100
NCCCn1c2c(c3ccc([N+](=O)[O-])cc3c1=O)C(=O)c1cc(I)ccc1-2	0.307	1.71	< 0.0234	1.78	< 0.01	1.61	< 0.01	0.251	0.0446	2.08	–	–	0.0268	0.234	–	< 0.01	1.76	0.0211	1.75	–
COc1cccc2c1O/C(=C\c1ccc([N+](=O)[O-])s1)C2=O	4	> 100	–	–	4.21	> 100	–	–	1.48	7.16	–	> 100	2.54	> 24.9	8.83	0.46	1.75	–	> 100	3.16

Source: PubChem BioAssay (NCI)
